Test system: child with severe nasal congestion due to a cold
Experiment: Severe nasal congestion due to a cold, child
Type: in vivo, human
Conditions: every four hours
Text: A child presents with severe nasal congestion due to a cold. […] The child then supplements the oral medication by using the composition of this Example, one spray into each nostril, following each dose of the oral medication.

## CN[C@@H](C)[C@@H](O)c1ccccc1 [pseudophedrine]
  relief of nasal congestion, oral medication alone: limited relief
